Drawing on patent publication US20250215029A1 (Recludix Pharma, Inc., priority 2022, published 2025), this text covers IC50 for 15 molecules.

Each structure is given as a SMILES string. pIC50: −log10 of the molar value. Like-named read-outs stand apart in the source and are kept apart here.

The target in assay [1] is T1, Recombinant STAT6 protein (STAT6 (W123-T658)) (Homo sapiens, UniProt P42226).
T1 construct: Recombinant STAT6 protein (STAT6 (W123-T658))
T1 sequence (P42226 123-658): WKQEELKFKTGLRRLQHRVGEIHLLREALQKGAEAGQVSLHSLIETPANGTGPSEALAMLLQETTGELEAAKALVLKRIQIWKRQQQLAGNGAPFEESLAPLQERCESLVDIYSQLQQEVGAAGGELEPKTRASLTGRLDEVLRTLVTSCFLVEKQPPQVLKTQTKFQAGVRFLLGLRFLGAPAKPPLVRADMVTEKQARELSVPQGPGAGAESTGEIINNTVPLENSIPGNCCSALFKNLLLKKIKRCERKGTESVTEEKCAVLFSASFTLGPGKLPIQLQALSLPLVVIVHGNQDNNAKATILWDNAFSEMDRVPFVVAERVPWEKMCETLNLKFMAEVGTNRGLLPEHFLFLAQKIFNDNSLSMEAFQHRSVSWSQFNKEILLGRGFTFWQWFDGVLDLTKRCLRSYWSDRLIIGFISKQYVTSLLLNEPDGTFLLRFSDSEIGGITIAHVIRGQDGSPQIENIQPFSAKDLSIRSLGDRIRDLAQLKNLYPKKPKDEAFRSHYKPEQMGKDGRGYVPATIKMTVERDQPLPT
Put plainly: STAT6 Fluorescence Polarization (FP) Assay. In kind it is binding. Conditions: 45-minute incubation. The method, boiled down:
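Recombinant STAT6 (W123-T658) at 250 nM mixed with 2 nM 5-FAM phosphotyrosine peptide probe in HEPES pH 7.4 buffer with DTT, 1% DMSO final, added to serially diluted compounds. FP (mP) read after 45 min at room temperature; IC50 by nonlinear regression vs log concentration.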

Assay [2] addresses T2, Recombinant STAT3 protein (STAT3 (G127-I722)) (Homo sapiens, UniProt P40763).
T2 construct: Recombinant STAT3 protein (STAT3 (G127-I722))
Briefly: STAT3 Fluorescence Polarization (FP) Assay. In kind it is binding. Conditions: probe 5-FAM-GpYLPQTV-NH2 2 nM, 45-minute incubation. The method, boiled down:
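Displacement of a fluorescent phosphotyrosine peptide (5-FAM-GpYLPQTV-NH2, 2 nM) from 25 nM recombinant STAT3 G127-I722 was monitored by FP after 45 min at room temperature.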
(In general: In fluorescence polarisation assays a small probe gives low polarisation when free and higher when bound to something large.)

Setting [3] is: STAT6 (W123-T658) 250 nM, probe 5-FAM-Ap[…]-NH2 2 nM, read-out: STAT6 (FP assay IC50 class).
Where [4] appears, read: STAT3 (G127-I722) 25 nM, read-out: STAT3 (FP assay IC50 class).
Setting [5] is: STAT6 250 nM, probe 5-FAM-Ap[…]-NH2 2 nM, read-out: STAT6 (FP assay IC50).
Setting [6] is: STAT3 25 nM, read-out: STAT3 (FP assay IC50).

T2 sequence (P40763 127-722): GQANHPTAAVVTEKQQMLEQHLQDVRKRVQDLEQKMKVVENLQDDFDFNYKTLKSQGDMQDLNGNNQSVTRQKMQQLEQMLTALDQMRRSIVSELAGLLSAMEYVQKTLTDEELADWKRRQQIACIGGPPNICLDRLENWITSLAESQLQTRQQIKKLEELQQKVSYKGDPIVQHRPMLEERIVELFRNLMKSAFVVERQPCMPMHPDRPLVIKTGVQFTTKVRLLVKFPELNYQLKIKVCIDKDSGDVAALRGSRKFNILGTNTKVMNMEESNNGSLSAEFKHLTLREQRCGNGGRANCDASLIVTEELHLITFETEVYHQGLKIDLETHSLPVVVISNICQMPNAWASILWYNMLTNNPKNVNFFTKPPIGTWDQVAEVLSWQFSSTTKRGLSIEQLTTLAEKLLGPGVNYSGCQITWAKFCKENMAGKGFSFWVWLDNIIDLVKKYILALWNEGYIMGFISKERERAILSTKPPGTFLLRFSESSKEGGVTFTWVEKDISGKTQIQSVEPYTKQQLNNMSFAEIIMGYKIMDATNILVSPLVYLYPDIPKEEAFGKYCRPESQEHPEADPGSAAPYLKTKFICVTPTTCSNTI

One may read the pIC50 as the IC50 on a negative log10 scale, so that one unit is a factor of ten. Turning to `CCOc1ccncc1C1CN(C(=O)[C@@H]2CC[C@@H]3CCC[C@H](NC(=O)c4cc5cc([C@H](F)P(=O)(O)O)ccc5s4)C(=O)N32)C1` (single isomer, unassigned) [Compound 772], the results for the pIC50 in assay [1] (setting [3]) and in assay [2] (setting [4]) were 4.52 to 5.52 and over 7.00, respectively.
Turning to `COc1ccncc1C1CN(C(=O)[C@@H]2CC[C@@H]3CCC[C@H](NC(=O)c4cc5cc(CP(=O)(O)O)ccc5s4)C(=O)N32)C1` [Compound 502, ((2-(((3S,6S,9aS)-3-(3-(4-methoxypyridin-3-yl)azetidine-1-carbonyl)-5-oxooctahydro-1H-pyrrolo[1,2-a]azepin-6-yl)carbamoyl)benzo[b]thiophen-5-yl)methyl)phosphonic acid], the pIC50 in assay [1] (setting [3]) is 4.52 to 5.52; in assay [2] (setting [4]) it was 6.00 to 7.00.
For the molecule `CC(C)c1ccncc1C1CN(C(=O)[C@@H]2CC[C@@H]3CCC[C@H](NC(=O)c4cc5cc(C(F)P(=O)(O)O)ccc5s4)C(=O)N32)C1` (stereo partly drawn) [Compound 939, (fluoro(2-(((3S,6S,9aS)-3-(3-(4-isopropylpyridin-3-yl)azetidine-1-carbonyl)-5-oxooctahydro-1H-pyrrolo[1,2-a]azepin-6-yl)carbamoyl)benzo [b]thiophen-5-yl)methyl) phosphonic acid], the values for the pIC50 in assay [1] (setting [3]) and in assay [2] (setting [4]) were 4.52 to 5.52 and over 7.00, respectively.
The matching figures for `C[C@H]1C[C@H]2CC[C@@H](C(=O)N3CC(c4cnccc4F)C3)N2C(=O)[C@@H](NC(=O)c2cc3cc(C(F)P(=O)(O)O)ccc3s2)C1` (stereo partly drawn) [Compound 207, (fluoro(2-(((3S,6S,8R,9aR)-3-(3-(4-fluoropyridin-3-yl)azetidine-1-carbonyl)-8-methyl-5-oxooctahydro-1H-pyrrolo[1,2-a]azepin-6-yl)carbamoyl)benzo[b]thiophen-5-yl)methyl)phosphonic acid]: 4.52 to 5.52 and over 7.00.
Take `O=C(N[C@H]1CCC[C@H]2CC[C@@H](C(=O)N3CC(c4cccnc4)C3)N2C1=O)c1cc2cc(CP(=O)(O)O)ncc2s1` [Compound 574, ((2-(((3S,6S,9aS)-5-oxo-3-(3-(pyridin-3-yl)azetidine-1-carbonyl)octahydro-1H-pyrrolo[1,2-a]azepin-6-yl)carbamoyl)thieno[2,3-c]pyridin-5-yl)methyl)phosphonic acid]: the results for the pIC50 in assay [1] (setting [3]) and in assay [2] (setting [4]) were 4.52 to 5.52 and 5.00 to 6.00, respectively.
Consider `O=C(N[C@H]1CCCC[C@H]2CC[C@@H](C(=O)N3CC4(CC(=O)c5nccn54)C3)N2C1=O)c1cc2cc(C(F)(F)P(=O)(O)O)ccc2s1` [Compound 774, (difluoro(2-(((3S,6S,10aS)-5-oxo-3-(7′-oxo-6′,7′-dihydrospiro[azetidine-3,5′-pyrrolo[1,2-a]imidazole]-1-carbonyl)decahydropyrrolo[1,2-a]azocin-6-yl)carbamoyl)benzo [b]thiophen-5-yl)methyl) phosphonic acid], for which the results for the pIC50 in assay [1] (setting [3]) and in assay [2] (setting [4]) were 4.52 to 5.52 and over 7.00, respectively.
Turning to `O=C(N[C@H]1CCC[C@H]2CC[C@@H](C(=O)N3CC(c4n[nH]cc4F)C3)N2C1=O)c1cc2cc(C(F)P(=O)(O)O)ccc2s1` (stereo partly drawn) [Compound 595, (fluoro(2-(((3S,6S,9aS)-3-(3-(4-fluoro-1H-pyrazol-3-yl)azetidine-1-carbonyl)-5-oxooctahydro-1H-pyrrolo[1,2-a]azepin-6-yl)carbamoyl)benzo [b]thiophen-5-yl)methyl) phosphonic acid], the figures for the negative logarithm of the IC50 (pIC50) in assay [1] (setting [3]) and in assay [2] (setting [4]) were 4.52 to 5.52 and 6.00 to 7.00, respectively.
For the molecule `O=C(/C=C/c1ccc(C(F)(F)P(=O)(O)O)cc1)N[C@H]1CCCC[C@H]2CC[C@@H](C(=O)N3Cc4cnn(-c5ccccc5)c4C3)N2C1=O` [Compound 829, (difluoro(4-((E)-3-oxo-3-(((3S,6S,10aS)-5-oxo-3-(1-phenyl-1,4,5,6-tetrahydropyrrolo[3,4-c]pyrazole-5-carbonyl)decahydropyrrolo[1,2-a]azocin-6-yl)amino)prop-1-en-1-yl)phenyl)methyl) phosphonic acid], the pIC50 is 5.52 to 6.52 in assay [1] (setting [3]) and 5.00 to 6.00 in assay [2] (setting [4]).
For `O=C(N[C@H]1CCC[C@H]2CC[C@@H](C(=O)N3CC(c4cscc4F)C3)N2C1=O)c1cc2cc(C(F)P(=O)(O)O)ccc2s1` (stereo partly drawn) [Compound 757, (fluoro(2-(((3S,6S,9aS)-3-(3-(4-fluorothiophen-3-yl)azetidine-1-carbonyl)-5-oxooctahydro-1H-pyrrolo[1,2-a]azepin-6-yl)carbamoyl)benzo [b]thiophen-5-yl)methyl) phosphonic acid], the pIC50 in assay [1] (setting [3]) is 4.52 to 5.52; in assay [2] (setting [4]), 6.00 to 7.00.
On to `O=C(N[C@H]1CCC[C@H]2CC[C@@H](C(=O)N3CC(O)(c4ccccn4)C3)N2C1=O)c1cc2cc(C(F)(F)P(=O)(O)O)ccc2s1` [Compound 45, (difluoro(2-(((3S,6S,9aS)-3-(3-hydroxy-3-(pyridin-2-yl)azetidine-1-carbonyl)-5-oxooctahydro-1H-pyrrolo[1,2-a]azepin-6-yl)carbamoyl)benzo[b]thiophen-5-yl)methyl) phosphonic acid], for which the pIC50 was 5.52 to 6.52 in assay [1] (setting [5]) and over 7.00 in assay [2] (setting [6]).
Turning to `N#C[C@H]1CN(C(=O)[C@@H]2CC[C@@H]3CCCC[C@H](NC(=O)c4ccc5ccc(C(F)(F)P(=O)(O)O)cc5c4)C(=O)N32)C[C@@H]1c1cc[nH]c(=O)c1` (single isomer, unassigned) [Compound 80, ((7-(((3S,6S,10aS)-3-((3R,4S or 3S,4R)-3-cyano-4-(2-oxo-1,2-dihydropyridin-4-yl)pyrrolidine-1-carbonyl)-5-oxodecahydropyrrolo [1,2-a]azocin-6-yl)carbamoyl)naphthalen-2-yl)difluoromethyl) phosphonic acid], the pIC50 in assay [1] (STAT6 250 nM, probe 5-FAM-ApYKPFQDLI-NH2 2 nM, read-out: STAT6 (FP assay IC50)) was at least 6.52; in assay [2] (setting [6]), 6.00 to 7.00.
For the molecule `O=C(N[C@H]1CCC[C@H]2CC[C@@H](C(=O)N3CC(c4ccc5ncccc5c4F)C3)N2C1=O)c1cc2cc(C(F)P(=O)(O)O)ccc2s1` (stereo partly drawn) [Compound 544, (fluoro(2-(((3S,6S,9aS)-3-(3-(5-fluoroquinolin-6-yl)azetidine-1-carbonyl)-5-oxooctahydro-1H-pyrrolo[1,2-a]azepin-6-yl)carbamoyl)benzo[b]thiophen-5-yl)methyl)phosphonic acid], the pIC50 in assay [1] (setting [3]) is 4.52 to 5.52; in assay [2] (setting [4]) it was 5.00 to 6.00.
The like results for `N#C[C@@H]1[C@@H](c2ccccc2)CN(C(=O)[C@@H]2CC[C@@H]3CCCC[C@H](NC(=O)c4ccc5ccc(C(F)P(=O)(O)O)cc5c4)C(=O)N32)C12CC2` (single isomer, unassigned) [Compound 894] were, in that order, at least 6.52 and 5.00 to 6.00.
For the molecule `COc1ccncc1C1CN(C(=O)[C@@H]2CC[C@@H]3C[C@@H](C)C[C@H](NC(=O)c4cc5cc([C@H](F)P(=O)(O)O)ccc5s4)C(=O)N32)C1` [Compound 749, ((R)-fluoro(2-(((3S,6S,8S,9aR)-3-(3-(4-methoxypyridin-3-yl)azetidine-1-carbonyl)-8-methyl-5-oxooctahydro-1H-pyrrolo[1,2-a]azepin-6-yl)carbamoyl)benzo [b]thiophen-5-yl)methyl) phosphonic acid], the pIC50 is 4.52 to 5.52 in assay [1] (setting [3]) and over 7.00 in assay [2] (setting [4]).
Regarding `O=C(N[C@H]1C=CC[C@H]2CC[C@@H](C(=O)Nc3ccc(-c4ccccc4)cc3)N2C1=O)c1cc2cc(C(F)(F)P(=O)(O)O)ccc2s1` [Compound 97, ((2-(((3S,6S,9aR)-3-([1,1′-biphenyl]-4-ylcarbamoyl)-5-oxo-2,3,5,6,9,9a-hexahydro-1H-pyrrolo[1,2-a]azepin-6-yl)carbamoyl)benzo[b]thiophen-5-yl)difluoromethyl) phosphonic acid], the negative-log IC50 (pIC50) was 5.52 to 6.52 in assay [1] (setting [5]) and 6.00 to 7.00 in assay [2] (setting [6]).
